{
  "source": "patent US9029328B2",
  "about": "“Methods for cardioprotection and cardioregeneration with dimers of EGF family ligands” (The Brigham and Women's Hospital, Inc., priority 2010, dated 2015)",
  "key": {"HeLa cells": {"test_system": "HeLa cells", "assay": "ERK phosphorylation in HeLa cells (EGF containing ligands)", "assay_type": "cell-based", "conditions": "inhibitor control", "method": "(§1) FIG. 3. Bioactivity of engineered ligands. Stimulation of ERK phosphorylation by engineered EGF (C1, C2) and NRG (C3, C4) compared to native protein. Inhibition of phosphorylation was accomplished via a pan-ErbB kinase inhibitor N-(4-((3-Chloro-4-fluorophenyl)amino)-pyrido[3,4-d]pyrimidin-6-yl)2-butynamide (i), indicating specificity; FIG. 3A (HeLa), FIG. 3B (MCF-7).\n(§2) Proteins are produced using a maltose binding protein (MBP) tagged system (pMAL-c2X, New England Biolabs). Proteins are analyzed by Coomassie staining, immunoblotting, mass spectrometry, absorbance at 280 nm, and in vitro cell response versus wild type ligands EGF and NRG. Specificity for ErbB receptor activation was further assessed by including inhibitor controls using the pan-ErbB kinase inhibitor N-(4-((3-Chloro-4-fluorophenyl)amino)-pyrido[3,4-d]pyrimidin-6-yl)-2-butynamide. Bioactivity and ErbB specificity were validated in HeLa and MCF-7 cells (for EGF and NRG containing ligands, respectively) (FIG. 3). HeLa cells express EGFR and ErbB2 and are responsive to EGF while MCF-7 cells express ErbB3 and ErbB4 and are responsive to NRG."}, "MCF-7 cells": {"test_system": "MCF-7 cells", "assay": "ERK phosphorylation in MCF-7 cells (NRG containing ligands)", "assay_type": "cell-based", "conditions": "inhibitor control", "method": "as §1, §2"}, "[1]": {"conditions": "FDA label; cited from earlier work"}, "[2]": {"test_system": "ErbB2 and ErbB3 receptors in H3255 cells", "assay": "Western blot of pHER2 and pHER3 in H3255 cell lysates", "assay_type": "cell-based", "description": "FIG. 9. Western blot analysis of pHER2 and pHER3 in lysates from H3255 cells stimulated by monovalent NRG (NC) or bivalent NRG (NN) (data representative of 2 independent experiments) (FIG. 9B). A possible mechanism for the observed differences in monovalent NRG compared to bivalent NN, in which NN fosters homodimerization or homo-oligomerization of HER3 at the expense of heterodimers with HER2, is illustrated in the schematic (FIG. 9A).\nThis hypothesis is further supported by the use of H3255 cells, which express high levels of the ErbB3 receptor and low levels of the ErbB4 receptor. Because the potential phenotypic effects associated with dimerization, oligomerization, and/or aggregation are more apparent with ErbB3 than ErbB4, this setting was chosen for proof-of-concept experiments."}, "[3]": {"target": "T1, soluble crosslinked HER3 homodimers (ErbB3) (Homo sapiens, UniProt P21860)", "T1 construct": "exposed to soluble crosslinked HER3 homodimers (ErbB3)", "T1 sequence (P21860 20-643 limits assumed)": "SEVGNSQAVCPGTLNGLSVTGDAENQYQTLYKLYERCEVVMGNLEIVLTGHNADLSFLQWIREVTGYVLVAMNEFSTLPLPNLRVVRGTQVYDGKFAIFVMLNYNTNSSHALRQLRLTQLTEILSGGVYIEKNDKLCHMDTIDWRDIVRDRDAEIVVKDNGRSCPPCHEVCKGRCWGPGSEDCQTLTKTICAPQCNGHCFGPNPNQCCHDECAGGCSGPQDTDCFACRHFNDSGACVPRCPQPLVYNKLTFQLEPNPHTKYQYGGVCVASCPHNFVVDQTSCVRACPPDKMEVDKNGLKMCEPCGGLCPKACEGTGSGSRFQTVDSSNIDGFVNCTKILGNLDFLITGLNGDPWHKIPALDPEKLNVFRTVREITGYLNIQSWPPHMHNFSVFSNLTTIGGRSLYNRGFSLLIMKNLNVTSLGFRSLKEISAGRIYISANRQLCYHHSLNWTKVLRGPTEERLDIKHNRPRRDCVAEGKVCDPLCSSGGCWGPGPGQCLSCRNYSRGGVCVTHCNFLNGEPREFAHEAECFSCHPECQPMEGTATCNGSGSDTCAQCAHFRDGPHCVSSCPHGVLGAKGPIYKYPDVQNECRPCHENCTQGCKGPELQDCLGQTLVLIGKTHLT", "assay": "Aggregation of soluble ErbB3 by dynamic light scattering", "assay_type": "binding", "conditions": "various ligand:ErbB3 ratios, n=10", "method": "FIG. 10. Specific binding of bivalent NN to HER3. Bivalent NN, monovalent NRG\n(NC and NN), native NRG, or bivalent EN were exposed to soluble crosslinked HER3 homodimers (ErbB3) and hydrodynamic radius (RH) at various ligand:ErbB3 ratios. Receptor aggregation was determined by dynamic light scattering (n=10)."}, "infarcted hearts": {"test_system": "infarcted hearts", "conditions": "nanofiber delivery, n=7, from reference [10]; cited from earlier work"}, "HER3 and HER4 receptors": {"test_system": "HER3 and HER4 receptors", "assay": "NRG relative affinity for HER3 and HER4 versus HER1", "assay_type": "binding", "description": "Accordingly, in the context of cardiomyocytes, receptor signaling bias can be achieved, for example, through use of a ligand with high affinity for HER4/ErbB4. One such ligand is neuregulin-1β (NRG or NRG1, as used herein). To this end, the invention provides an NRG ligand homodimer. This homodimer induces HER4 homodimerization due to the high affinity of NRG for HER4/ErbB4. NRG binds HER3 and HER4 receptors with approximately 5000-fold greater affinity than HER1. ErbB3 is not expressed on cardiomyocytes however so exposure of these cells to an NRG dimer will stimulate the dimerization of HER4 homodimers without interference from HER3 receptors."}, "[4]": {"test_system": "hTERT-immortalized human mesenchymal stem cells (hTMSC)", "assay": "ERK phosphorylation in hTMSC, western analysis with densitometry", "assay_type": "cell-based", "method": "FIG. 4. Cellular responses differ between native and bivalent NRG. (A) hTMSC were exposed to native (rhNRG), monovalent (C3, C4) and bivalent (NN) NRG in culture. ERK phosphorylation was measured via western analysis and quantified by densitometry.\nSince NRG has high affinity for ErbB3 as well as ErbB4, and since ErbB3 is kinase-deficient, recruitment of ErbB3 homodimers via bivalent NRG should produce a null signaling outcome, whereas native or monovalent engineered NRG should be capable of stimulating ERK phosphorylation in these cells via ErbB2/ErbB3 mediated signaling."}, "[5]": {"test_system": "Neonatal rat cardiomyocytes (NRCM)", "assay": "Cardiomyocyte viability under doxorubicin, cell titer blue assay", "assay_type": "cell-based", "conditions": "FIGS. 6 and 7; monomers compared with dimers", "method": "FIG. 5. Bivalent NRG attenuates doxorubicin-induced toxicity to cardiomyocytes in vitro. (A) Neonatal rat cardiomyocytes (NRCM) were simultaneously exposed to doxorubicin (1 μM) and either fibroblast growth factor-1 (FGF1, a known NRCM mitogen), native NRG (NRG), or bivalent NRG (NRG-NRG) at the indicated doses. […] (B) Bivalent NRG may preferentially activate the PI3K/Akt pro-survival signaling pathway.\nFIG. 6 is a bar graph showing the effect of NRG monomers and NRG homodimers on cardiomyocyte viability in the presence of doxorubicin.\nFIG. 7 is a bar graph showing the effect of NRG monomers, NRG homodimers, EGF-NRG heterodimers, and EGF and NRG monomers on cardiomyocyte viability in the presence of doxorubicin.\nThe activity of engineered ErbB receptor ligands has been verified in multiple cell systems. ErbB receptor profiles in cardiomyocytes are distinct. The efficacy of engineered bivalent ligands has been tested on cardiomyocytes in culture. Specifically, the effects of native and bivalent NRG on cardiomyocytes exposed to DOX-induced cytotoxicity were examined. […] If this effect of bivalent NRG is validated in vivo, it could have significant potential as a new cardioprotective agent against DOX-induced cardiomyopathy.\nFIGS. 6 and 7 show similar results."}, "ErbB4": {"target": "ErbB4 (Homo sapiens, UniProt Q15303)", "sequence (Q15303 26-1308, species assumed)": "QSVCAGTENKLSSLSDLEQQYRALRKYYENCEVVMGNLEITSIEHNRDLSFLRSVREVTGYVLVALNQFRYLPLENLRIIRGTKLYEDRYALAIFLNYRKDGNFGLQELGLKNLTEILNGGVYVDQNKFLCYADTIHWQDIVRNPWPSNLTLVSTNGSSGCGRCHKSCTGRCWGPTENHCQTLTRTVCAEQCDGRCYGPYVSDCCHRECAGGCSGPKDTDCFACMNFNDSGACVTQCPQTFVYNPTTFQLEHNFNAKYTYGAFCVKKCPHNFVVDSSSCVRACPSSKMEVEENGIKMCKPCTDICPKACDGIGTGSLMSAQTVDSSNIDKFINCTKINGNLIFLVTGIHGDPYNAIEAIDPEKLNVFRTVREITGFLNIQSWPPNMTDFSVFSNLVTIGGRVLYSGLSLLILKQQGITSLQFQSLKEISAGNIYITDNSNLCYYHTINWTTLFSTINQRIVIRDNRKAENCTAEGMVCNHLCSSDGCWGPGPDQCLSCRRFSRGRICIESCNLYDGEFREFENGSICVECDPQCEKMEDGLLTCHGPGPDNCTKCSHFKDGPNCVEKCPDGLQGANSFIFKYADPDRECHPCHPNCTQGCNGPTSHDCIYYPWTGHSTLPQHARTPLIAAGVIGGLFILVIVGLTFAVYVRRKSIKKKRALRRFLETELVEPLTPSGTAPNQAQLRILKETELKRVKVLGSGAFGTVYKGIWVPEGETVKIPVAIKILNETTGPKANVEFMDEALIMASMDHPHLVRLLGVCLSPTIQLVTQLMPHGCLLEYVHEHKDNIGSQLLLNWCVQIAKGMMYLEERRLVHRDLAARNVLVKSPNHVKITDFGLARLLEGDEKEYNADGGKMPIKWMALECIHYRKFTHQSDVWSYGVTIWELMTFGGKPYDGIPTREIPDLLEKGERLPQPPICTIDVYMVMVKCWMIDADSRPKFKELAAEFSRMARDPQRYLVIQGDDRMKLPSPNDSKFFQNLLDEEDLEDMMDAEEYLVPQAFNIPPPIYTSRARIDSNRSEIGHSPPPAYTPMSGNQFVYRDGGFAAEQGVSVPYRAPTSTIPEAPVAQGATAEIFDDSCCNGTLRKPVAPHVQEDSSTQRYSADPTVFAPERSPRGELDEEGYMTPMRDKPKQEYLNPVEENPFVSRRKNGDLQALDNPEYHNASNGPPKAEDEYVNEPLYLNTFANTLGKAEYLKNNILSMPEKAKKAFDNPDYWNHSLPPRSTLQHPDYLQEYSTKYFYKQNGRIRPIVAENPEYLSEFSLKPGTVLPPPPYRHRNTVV", "conditions": "NRG binding to ErbB4, reference [18]; cited from earlier work"}, "ErbB1": {"target": "ErbB1 (Homo sapiens, UniProt P00533)", "conditions": "NRG binding to ErbB1, reference [18]; cited from earlier work"}},
  "note": "pKd: −log10 of the molar value.",
  "data": [
    {"compound": "CC#CC(=O)Nc1cc2c(Nc3ccc(F)c(Cl)c3)ncnc2cn1", "note": "[N-(4-((3-Chloro-4-fluorophenyl)amino)-pyrido[3,4-d]pyrimidin-6-yl)-2-butynamide]", "values": [
      {"measurement": "inhibition of ligand-induced pERK activation", "setting": "HeLa cells", "result": "specifically inhibited"},
      {"measurement": "inhibition of ligand-induced pERK activation", "setting": "MCF-7 cells", "result": "specifically inhibited"}
    ]},
    {"compound": "COc1cccc2c1C(=O)c1c(O)c3c(c(O)c1C2=O)C[C@@](O)(C(=O)CO)C[C@@H]3O[C@H]1C[C@H](N)[C@H](O)[C@H](C)O1", "note": "[doxorubicin]", "values": [
      {"measurement": "cumulative dose at which risk of developing impaired myocardial function increases", "setting": "[1]", "result": "about 300 mg/m^2"}
    ]},
    {"compound": "NC: Monovalent NRG used as comparator to bivalent NN", "values": [
      {"measurement": "phosphorylation of ErbB2 and ErbB3 receptors", "setting": "[2]", "result": "stimulates phosphorylation"},
      {"measurement": "aggregation of soluble ErbB3 receptors (hydrodynamic radius)", "setting": "[3]", "result": "Only bivalent NN induced aggregation"}
    ]},
    {"compound": "SDF-1(S4V): Protease resistant form of SDF-1, delivered via self-assembling peptide nanofibers", "values": [
      {"measurement": "capillary density (isolectin-positive staining)", "setting": "infarcted hearts", "result": "increased capillary density"}
    ]},
    {"compound": "neuregulin-1β [native NRG]", "values": [
      {"measurement": "greater affinity for HER3 and HER4 than HER1", "setting": "HER3 and HER4 receptors", "result": "approximately 5000 fold"},
      {"measurement": "ERK phosphorylation (pERK response)", "setting": "[4]", "result": "dose-dependent increase in ERK phosphorylation"},
      {"measurement": "cardiomyocyte viability in the presence of doxorubicin", "setting": "[5]", "result": "significantly (p<0.05) decreased"},
      {"measurement": "aggregation of soluble ErbB3 receptors (hydrodynamic radius)", "setting": "[3]", "result": "Only bivalent NN induced aggregation"},
      {"measurement": "pKd", "setting": "ErbB4", "result": "~9.15"},
      {"measurement": "pKd", "setting": "ErbB1", "result": "~5.26"}
    ]}
  ]
}
